# Target: T1, NLRP3 inflammasome (Homo sapiens, UniProt Q96P20)
# T1 construct: endogenous in cells; host or cells: THP-1 cells (PMA-differentiated, LPS-primed, nigericin-stimulated)
# Assay: THP-1 Cell-Based NLRP3 Activation Assay
# Conditions: THP-1 cells, PMA, 100 ng/mL LPS 3 hrs, 30 min pre-incubation with test compound, 10 μM nigericin 1 hr
# Description: THP-1 cells are cultured in complete media (CM) until they reach logarithmic growth and achieve a viability >90%. CM is composed of RPMI-1640 (+Glutamax)/10% fetal bovine serum/55 μM β-mercaptoethanol/pen/strep. Cells are spun down and resuspended to 1,000,000 cells/mL in CM containing either 20 nM or 500 nM PMA. 150,000 cells […] are then added to each well of a 96-well TC plate and incubated for either 24 hr or 3 hr, respectively, in a standard cell culture incubator (37° C.; 5% CO2). After this incubation, the plate is tilted and media carefully removed. 200 μL of CM containing 100 ng/mL LPS is then added to the wells and the cells incubated an additional 3 hrs. The media is again removed and replaced with Opti-Mem medium containing pre-determined dilutions of test compounds in replicate wells. After a 30 min pre-incubation with test compound, 10 μM nigericin (final concentration) in Opti-Mem medium with the corresponding concentration of compound is added to the wells for an additional 1 hr. Positive control wells contain 10 μM nigericin in Opti-Mem in the absence of test compound, while negative control wells contain Opti-Mem only. […] Once supernatants are removed, the relative viability of adherent cells in the 96-well TC plate are determined using a CellTiter-Glo® luminescent cell viability assay (Promega).
# T1 sequence (Q96P20 whole entry): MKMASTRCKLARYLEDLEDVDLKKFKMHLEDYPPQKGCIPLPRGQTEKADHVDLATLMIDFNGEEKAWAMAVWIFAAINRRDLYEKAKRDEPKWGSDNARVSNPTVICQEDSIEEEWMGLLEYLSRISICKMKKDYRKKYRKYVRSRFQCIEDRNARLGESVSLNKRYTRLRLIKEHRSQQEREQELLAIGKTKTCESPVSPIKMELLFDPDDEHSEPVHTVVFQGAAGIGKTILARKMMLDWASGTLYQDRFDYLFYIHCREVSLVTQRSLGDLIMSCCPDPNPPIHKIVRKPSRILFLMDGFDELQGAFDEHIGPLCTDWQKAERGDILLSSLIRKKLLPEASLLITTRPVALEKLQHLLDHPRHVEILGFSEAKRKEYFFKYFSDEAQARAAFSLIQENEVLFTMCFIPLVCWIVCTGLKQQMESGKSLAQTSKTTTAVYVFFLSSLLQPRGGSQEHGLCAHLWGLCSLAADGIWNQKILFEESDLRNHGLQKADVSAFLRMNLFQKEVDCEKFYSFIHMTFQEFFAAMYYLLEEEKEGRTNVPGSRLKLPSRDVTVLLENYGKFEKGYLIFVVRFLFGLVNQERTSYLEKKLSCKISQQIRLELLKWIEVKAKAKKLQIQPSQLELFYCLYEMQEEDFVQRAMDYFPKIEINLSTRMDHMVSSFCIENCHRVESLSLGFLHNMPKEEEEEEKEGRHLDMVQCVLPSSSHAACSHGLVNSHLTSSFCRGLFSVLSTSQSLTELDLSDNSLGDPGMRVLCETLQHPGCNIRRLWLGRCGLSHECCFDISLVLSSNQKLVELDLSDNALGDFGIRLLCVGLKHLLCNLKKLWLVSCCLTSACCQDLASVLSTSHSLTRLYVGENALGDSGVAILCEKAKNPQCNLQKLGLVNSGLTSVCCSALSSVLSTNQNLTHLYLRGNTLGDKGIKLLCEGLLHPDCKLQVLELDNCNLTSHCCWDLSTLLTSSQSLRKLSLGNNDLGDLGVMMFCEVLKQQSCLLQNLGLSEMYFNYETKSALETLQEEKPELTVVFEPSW
row,SMILES,IC50 [nM]
1,CN(Cc1cnc(CO)c2cn[nH]c12)C(=O)c1ccc(-c2cc(F)cc(F)c2)c(OC2COC2)c1 [Compound 155],< 1000
2,CCOc1cc(C(=O)N(C)Cc2cc(OC(C)=O)cc3cn[nH]c23)ccc1-c1cccc(F)c1 [Compound 007],< 1000
3,CCOc1cc(C(=O)N(C)Cc2cnc(CO)c3cn[nH]c23)cc(F)c1-c1cc(F)cs1 [Compound 093],< 1000
4,CN(Cc1cc(O)cc2cn[nH]c12)C(=O)c1cc(F)c(-c2ccccc2)c(OC2CC2)c1 [Compound 114],< 1000
5,CCOc1cc(C(=O)N(C)Cc2c(C)nc(CF)c3cn[nH]c23)ccc1-c1cccc(F)c1 [Compound 173],< 1000
6,CCCOc1cc(C(=O)N(C)Cc2cnc(CO)c3cn[nH]c23)cc(F)c1-c1cc(F)cc(F)c1 [Compound 136],< 1000
7,CCOc1nc(C(=O)N(C)[C@@H](C)c2cnc(C)c3cn[nH]c23)ccc1-c1cccc(F)c1 [Compound 123],< 1000
8,Cc1nc(CO)c2cn[nH]c2c1CN(C)C(=O)c1cc(F)c(-c2cccc(Cl)c2)c(OC2CC2)c1 [Compound 040],< 1000
9,CCOc1cc(C(=O)N(C)Cc2cnc(CO)c3cn[nH]c23)ccc1-c1ccc(Cl)s1 [Compound 164],< 1000
10,CCN(Cc1cnc(C(C)O)c2cn[nH]c12)C(=O)c1ccc(-c2cccc(F)c2)c(OC2CC2)c1 (stereo not drawn) [Compound 179],< 1000
11,Cc1nc(C)c2cn[nH]c2c1CN(C)C(=O)c1cc(F)c(-c2cccc(F)c2)c(OC2CC2)c1 [Compound 119],< 1000
12,CCCOc1cc(C(=O)N(C)Cc2cnc(CO)c3cn[nH]c23)ccc1-c1cccc(F)c1 [Compound 147],< 1000
13,CCCOc1cc(C(=O)N(C)Cc2cnc(CO)c3cn[nH]c23)cc(F)c1-c1cccc(F)c1 [Compound 138],< 1000
14,Cc1ncc(CN(C)C(=O)c2cc(F)c(-c3cccc(C#N)c3)c(OC3CC3)c2)c2[nH]ncc12 [Compound 065],< 1000
15,CN(Cc1cnc(CO)c2cn[nH]c12)C(=O)c1ccc(-c2cccs2)c(OC2CC2)c1 [Compound 085],< 10000
16,CCOc1cc(C(=O)N(C)Cc2cnc(C(C)O)c3cn[nH]c23)ccc1-c1nc(Cl)cs1 (stereo not drawn) [Compound 158],< 1000
17,CC(O)c1ncc(CN(C)C(=O)c2ccc(-c3cccc(Cl)c3)c(OC3CC3)c2)c2[nH]ncc12 (stereo not drawn) [Compound 101],< 1000
18,"CCOc1cc(C(=O)N(C)[C@H](C)c2c(O)ccc3cn[nH]c23)ccc1-c1cccc(F)c1 (single isomer, unassigned) [Compound 184]",< 10000
19,CCOc1cc(C(=O)N(C)[C@H](C)c2cnc(C)c3cn[nH]c23)ccc1-c1cccc(F)c1 [Compound 050],< 1000
20,CN(Cc1cnc(CO)c2cn[nH]c12)C(=O)c1cc(Cl)c(-c2cccc(Cl)c2)c(OC2CC2)c1 [Compound 161],< 1000
21,CCOc1cc(C(=O)N(C)Cc2cccc3[nH]ncc23)ccc1-c1cccc(C#N)c1 [Compound 126],< 1000
22,CCN(Cc1cnc(C)c2cn[nH]c12)C(=O)c1cc(F)c(-c2cccc(Cl)c2)c(OC2CC2)c1 [Compound 032],< 1000

row,SMILES,IC50 [nM]
1,CCOc1cc(C(=O)N(C)Cc2cnc(C(C)O)c3cn[nH]c23)cc(F)c1-c1cc(F)cc(C#N)c1 (stereo not drawn) [Compound 076],< 1000
2,CCOc1cc(C(=O)N(C)Cc2cnc(C(C)O)c3cn[nH]c23)cc(F)c1-c1cccs1 (stereo not drawn) [Compound 154],< 1000
3,CCOc1cc(C(=O)N(C)Cc2cnc(C(C)O)c3cn[nH]c23)cc(F)c1-c1cccc(F)c1 (stereo not drawn) [Compound 118],< 1000
4,CCOc1cc(C(=O)N(C)[C@@H](C)c2c(C)ncc3cn[nH]c23)ccc1-c1cccc(F)c1 [Compound 045],< 10000
5,CC(O)c1ncc(CN(C)C(=O)c2cc(F)c(-c3cccc(C#N)c3)c(OC3CC3)c2)c2[nH]ncc12 (stereo not drawn) [Compound 091],< 1000
6,CCOc1cc(C(=O)N(C)Cc2cnc(C)c3cn[nH]c23)ccc1-c1cccs1 [Compound 170],< 1000
7,CN(Cc1c(CO)ncc2cn[nH]c12)C(=O)c1ccc(-c2cccc(Cl)c2)c(OC2CC2)c1 [Compound 144],< 1000
8,CCOc1cc(C(=O)N(C)C(C)c2cnc(CF)c3cn[nH]c23)ccc1-c1cccc(F)c1 (stereo not drawn) [Compound 055],< 1000
9,Cc1nc(CO)c2cn[nH]c2c1CN(C)C(=O)c1ccc(-c2cccc(Cl)c2)c(OC2CC2)c1 [Compound 041],< 1000
10,CCOc1cc(C(=O)N(C)C(CC)c2cncc3cn[nH]c23)ccc1-c1cccc(F)c1 (stereo not drawn) [Compound 117],< 1000
11,CC(O)c1ncc(CN(C)C(=O)c2cc(F)c(-c3cccc(Cl)c3)c(OC3CC3)c2)c2[nH]ncc12 (stereo not drawn) [Compound 115],< 1000
12,CN(Cc1cc(O)cc2cn[nH]c12)C(=O)c1cc(F)c(-c2cccc(F)c2)c(OC2CC2)c1 [Compound 099],< 1000
13,CCOc1cc(C(=O)N(C)Cc2cnc(C(C)O)c3cn[nH]c23)ccc1-c1cc(F)cc(F)c1 (stereo not drawn) [Compound 026],< 1000
14,CN(Cc1cnc(CO)c2cn[nH]c12)C(=O)c1ccc(-c2cccc(Cl)c2)c(OC2COC2)c1 [Compound 108],< 1000
15,Cc1ncc2cn[nH]c2c1CN(C)C(=O)c1cc(F)c(-c2cccc(F)c2)c(OC2CC2)c1 [Compound 062],< 1000
16,CCOc1cc(C(=O)N(C)Cc2cnc(C(C)O)c3cn[nH]c23)ccc1-c1nccs1 (stereo not drawn) [Compound 149],< 10000
17,CCN(Cc1cnc(CO)c2cn[nH]c12)C(=O)c1cc(F)c(-c2cccc(Cl)c2)c(OC2CC2)c1 [Compound 092],< 1000
18,CCOc1cc(C(=O)N(C)C(C)c2ccc(F)c3cn[nH]c23)ccc1-c1cccc(F)c1 (stereo not drawn) [Compound 116],< 1000
19,CCOc1cc(C(=O)N(C)Cc2c(C)nc(C)c3cn[nH]c23)ccc1-c1cccc(F)c1 [Compound 053],< 1000
20,CC(O)c1ncc(CN(C)C(=O)c2ccc(-c3cccc(C#N)c3)c(OC3CC3)c2)c2[nH]ncc12 (stereo not drawn) [Compound 080],< 50000
21,CCN(Cc1cnc(CO)c2cn[nH]c12)C(=O)c1ccc(-c2cccc(Cl)c2)c(OC2CC2)c1 [Compound 182],< 1000
22,CCOc1cc(C(=O)N(C)Cc2c(C)c(OC)cc3cn[nH]c23)ccc1-c1cccc(F)c1 [Compound 167],< 1000

row,SMILES,IC50 [nM]
1,CCOc1cc(C(=O)N(C)Cc2c(O)ccc3cn[nH]c23)ccc1-c1cccc(F)c1 [Compound 036],< 1000
2,CCOc1cc(C(=O)N(C)[C@H](C)c2c(C)ncc3cn[nH]c23)ccc1-c1cccc(F)c1 [Compound 044],< 50000
3,CN(Cc1c(CO)ncc2cn[nH]c12)C(=O)c1cc(F)c(-c2cccc(Cl)c2)c(OC2CC2)c1 [Compound 145],< 1000
4,CCOc1cc(C(=O)N(C)Cc2cnc(C(C)O)c3cn[nH]c23)cc(F)c1-c1cc(F)cs1 (stereo not drawn) [Compound 081],< 1000
5,CCOc1cc(C(=O)N(C)Cc2ccc(CO)c3cn[nH]c23)ccc1-c1cccc(F)c1 [Compound 066],< 1000
6,CCOc1cc(C(=O)N(C)Cc2c(C)nc(CO)c3cn[nH]c23)ccc1-c1cccc(F)c1 [Compound 037],< 1000
7,CCOc1cc(C(=O)N(CC)Cc2cnc(C(C)O)c3cn[nH]c23)cc(F)c1-c1cccc(F)c1 (stereo not drawn) [Compound 174],< 1000
8,CCOc1cc(C(=O)N(C)Cc2cc(O)cc3cn[nH]c23)cc(F)c1-c1cccc(Cl)c1 [Compound 178],< 1000
9,CCN(Cc1cnc(CO)c2cn[nH]c12)C(=O)c1ccc(-c2cccc(C#N)c2)c(OC2CC2)c1 [Compound 082],< 50000
10,CCOc1cc(C(=O)N(C)Cc2cnc(C(C)O)c3cn[nH]c23)cc(F)c1-c1cc(C#N)cs1 (stereo not drawn) [Compound 072],< 10000
11,CCN(Cc1cnc(CO)c2cn[nH]c12)C(=O)c1cc(F)c(-c2cccc(F)c2)c(OC2CC2)c1 [Compound 180],< 1000
12,CCOc1cc(C(=O)N(C)Cc2c(C(C)O)ncc3cn[nH]c23)ccc1-c1cccc(F)c1 (stereo not drawn) [Compound 135],< 1000
13,CCOc1nc(C(=O)N(C)[C@H](C)c2cnc(C)c3cn[nH]c23)ccc1-c1cccc(F)c1 [Compound 124],< 50000
14,CCOc1cc(C(=O)N(CC)Cc2cnc(CO)c3cn[nH]c23)ccc1-c1cccc(Cl)c1 [Compound 177],< 1000
15,Cc1ncc([C@@H](C)N(C)C(=O)c2cc(F)c(-c3cccc(F)c3)c(OC3CC3)c2)c2[nH]ncc12 [Compound 034],< 10000
16,CC(O)c1ncc(CN(C)C(=O)c2ccc(-c3cccs3)c(OC3CC3)c2)c2[nH]ncc12 (stereo not drawn) [Compound 083],< 10000
17,CCOc1cc(C(=O)N(CC)Cc2cnc(CO)c3cn[nH]c23)ccc1-c1cccc(F)c1 [Compound 097],< 1000
18,CC(C)Oc1cc(C(=O)N(C)Cc2cnc(C(C)O)c3cn[nH]c23)ccc1-c1cccc(Cl)c1 (stereo not drawn) [Compound 141],< 1000
19,CCOc1cc(C(=O)N(C)Cc2c(C3CC3)ncc3cn[nH]c23)ccc1-c1cccc(F)c1 [Compound 011],< 1000
20,CCOc1cc(C(=O)N(C)Cc2cc(C(=O)OC)cc3cn[nH]c23)ccc1-c1cccc(F)c1 [Compound 008],< 10000
21,Cc1ncc([C@H](C)N(C)C(=O)c2cc(F)c(-c3cccc(F)c3)c(OC3CC3)c2)c2[nH]ncc12 [Compound 035],< 1000
22,CCOc1cc(C(=O)N(C)Cc2cnc(C(O)C(F)(F)F)c3cn[nH]c23)ccc1-c1cccc(F)c1 (stereo not drawn) [Compound 171],< 1000
